In the supplement of paper PMC5908809:

Assays:
[1] = system: normal NK cells expanded with K562-aAPC; experiment: percent inhibition of viability; higher = more inhibition; conditions: 72 h, IL-2 2.5 ng/mL
Experimental: (§1)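 Drug sensitivity and resistance testing on K562-aAPC-expanded normal NK cells: 5 concentrations (10-fold steps over a 10,000-fold range), 72 h at 37 °C, viability by CellTiter-Glo normalised to DMSO and benzethonium chloride controls; DSS from the fitted curve.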

IMC-1 (IL-2 20 ng/mL) [2] = experiment: as above; conditions: 72 h
SNK-6 (IL-2 2.5 ng/mL) [3] = experiment: as above; conditions: 72 h
[4] = system: normal primary NK cells, pool 3 (3 donors) (IL-2 2.5 ng/mL); experiment: as above; conditions: 72 h
NKL (IL-2 2.5 ng/mL) [5] = experiment: as above; conditions: 72 h
YT (IL-2 2.5 ng/mL) [6] = experiment: as above; conditions: 72 h
NK-92 (IL-2 2.5 ng/mL) [7] = experiment: as above; conditions: 72 h
[8] = system: normal primary NK cells, pool 2 (3 donors) (IL-2 2.5 ng/mL); experiment: as above; conditions: 72 h
[9] = system: normal primary NK cells, pool 1 (3 donors), resting (IL-2 0 ng/mL); experiment: as above; conditions: 72 h
KAI3 (IL-2 2.5 ng/mL) [10] = experiment: as above; conditions: 72 h
KHYG-1 (IL-2 2.5 ng/mL) [11] = experiment: as above; conditions: 72 h
[12] = system: normal primary NK cells, pool 1 (3 donors) (IL-2 2.5 ng/mL); experiment: as above; conditions: 72 h
DERL-7 (IL-2 2.5 ng/mL) [13] = experiment: as above; conditions: 72 h
NK-YS (IL-2 2.5 ng/mL) [14] = experiment: as above; conditions: 72 h
IMC-1 (IL-2 20 ng/mL) [15] = experiment: drug sensitivity score (DSS) (DSS units); higher = more sensitive; extreme values may be limits of the assay; conditions: 72 h
SNK-6 (IL-2 2.5 ng/mL) [16] = experiment: as above; conditions: 72 h
[17] = system: normal primary NK cells, pool 3 (3 donors) (IL-2 2.5 ng/mL); experiment: as above; conditions: 72 h
NKL (IL-2 2.5 ng/mL) [18] = experiment: as above; conditions: 72 h
YT (IL-2 2.5 ng/mL) [19] = experiment: as above; conditions: 72 h
NK-92 (IL-2 2.5 ng/mL) [20] = experiment: as above; conditions: 72 h
[21] = system: normal primary NK cells, pool 2 (3 donors) (IL-2 2.5 ng/mL); experiment: as above; conditions: 72 h
[22] = system: normal primary NK cells, pool 1 (3 donors), resting (IL-2 0 ng/mL); experiment: as above; conditions: 72 h
KAI3 (IL-2 2.5 ng/mL) [23] = experiment: as above; conditions: 72 h
KHYG-1 (IL-2 2.5 ng/mL) [24] = experiment: as above; conditions: 72 h
[25] = system: normal primary NK cells, pool 1 (3 donors) (IL-2 2.5 ng/mL); experiment: as above; conditions: 72 h
DERL-7 (IL-2 2.5 ng/mL) [26] = experiment: as above; conditions: 72 h
NK-YS (IL-2 2.5 ng/mL) [27] = experiment: as above; conditions: 72 h
[28] = system: normal NK cells expanded with K562-aAPC; experiment: as above; conditions: 72 h; IL-2 2.5 ng/mL
Experimental: as §1

O=C(Nc1c[nH]nc1-c1nc2ccc(CN3CCOCC3)cc2[nH]1)NC1CC1 [AT9283] (max concentration tested 1000 nM)
percent inhibition of viability [%]
Conditions	0.1 nM	1 nM	10 nM	100 nM	1000 nM
DERL-7 (IL-2 2.5 ng/mL) [13]	0.91	0.04	7.11	81.9	98.3
IMC-1 (IL-2 20 ng/mL) [2]	-3.86	-1.55	-6.66	65.3	100
KAI3 (IL-2 2.5 ng/mL) [10]	-1.1	-5.66	8.51	45.9	76.8
KHYG-1 (IL-2 2.5 ng/mL) [11]	0.97	-2.56	0.97	83.4	96
NK-92 (IL-2 2.5 ng/mL) [7]	3.17	8.69	0.17	50.1	67.7
NK-YS (IL-2 2.5 ng/mL) [14]	-4.25	-5.41	-2.2	57.1	62.4
NKL (IL-2 2.5 ng/mL) [5]	-4.9	-5.16	-3.64	38.5	64.4
SNK-6 (IL-2 2.5 ng/mL) [3]	13.2	8.33	13.9	73.1	96.5
YT (IL-2 2.5 ng/mL) [6]	0.76	-0.55	3.44	18.3	51.5
[1]	0.7	-5.39	3.23	57.8	65.9
[4]	-15.9	-12.2	-13.3	-0.35	9.39
[8]	-12.3	-10.8	-12.5	0.3	9.78
[9]	-10.1	-11	-42.4	-105	-157
[12]	-12.6	-14	-13.3	12.2	12.7

Conditions	drug sensitivity score
DERL-7 (IL-2 2.5 ng/mL) [26]	16
IMC-1 (IL-2 20 ng/mL) [15]	13.1
KAI3 (IL-2 2.5 ng/mL) [23]	9.99
KHYG-1 (IL-2 2.5 ng/mL) [24]	15.2
NK-92 (IL-2 2.5 ng/mL) [20]	9.6
NK-YS (IL-2 2.5 ng/mL) [27]	10.4
NKL (IL-2 2.5 ng/mL) [18]	8.19
SNK-6 (IL-2 2.5 ng/mL) [16]	15.5
YT (IL-2 2.5 ng/mL) [19]	4.99
[17]	0
[21]	0
[22]	0
[25]	0.59
[28]	11.1

COc1cc(N2CCN(C)CC2)ccc1Nc1nccc(-c2cn(C)c3cnccc23)n1 [AZ191] (max concentration tested 10000 nM)
percent inhibition of viability [%]
Conditions	1 nM	10 nM	100 nM	1000 nM	10000 nM
DERL-7 (IL-2 2.5 ng/mL) [13]	7.49	2.85	4.6	22.2	100
IMC-1 (IL-2 20 ng/mL) [2]	-5.47	3.31	-0.27	2.63	101
KAI3 (IL-2 2.5 ng/mL) [10]	-2.82	-0.25	1.51	7.76	96.3
KHYG-1 (IL-2 2.5 ng/mL) [11]	0.79	2.96	3.04	14.1	84
NK-92 (IL-2 2.5 ng/mL) [7]	2.97	2.04	-3.34	-19.2	93.8
NK-YS (IL-2 2.5 ng/mL) [14]	-4.12	2.61	2.04	8.64	101
NKL (IL-2 2.5 ng/mL) [5]	0.2	-6.29	1.16	9.93	100
SNK-6 (IL-2 2.5 ng/mL) [3]	-18.5	-11.7	-15.3	-7.38	92
YT (IL-2 2.5 ng/mL) [6]	2.03	4.34	2.77	1.55	41.9
[1]	-2.34	0.52	-4.12	6.6	100
[4]	-10.6	-7.12	4.76	-17.3	97.8
[8]	-12.1	-5.94	-2.76	-11.2	95.5
[9]	1.62	-14.6	-3.74	-36.1	89
[12]	7.5	-5.03	-5.7	-4.75	96.8

Conditions	drug sensitivity score
DERL-7 (IL-2 2.5 ng/mL) [26]	9.03
IMC-1 (IL-2 20 ng/mL) [15]	6.03
KAI3 (IL-2 2.5 ng/mL) [23]	6.56
KHYG-1 (IL-2 2.5 ng/mL) [24]	7.01
NK-92 (IL-2 2.5 ng/mL) [20]	4.21
NK-YS (IL-2 2.5 ng/mL) [27]	6.95
NKL (IL-2 2.5 ng/mL) [18]	7.17
SNK-6 (IL-2 2.5 ng/mL) [16]	4.58
YT (IL-2 2.5 ng/mL) [19]	2.31
[17]	4.48
[21]	4.59
[22]	3.59
[25]	5.01
[28]	6.54
